In one experiment the test system is SYP. Description: SYP expression in hippocampus by Western blotting, ischemia-reperfusion dementia mice. In kind it is in vivo, C57BL/6J mice. The protocol: Compound 4, 85 mg/kg, bid; D. Compound 4, 170 mg/kg, bid; E. Compound 4, 340 mg/kg, bid; F. Donepezil, 1.3 mg/kg. Compared with sham operation group, ## P<0.01; Compared with the model group, * P<0.05.
140 healthy C57BL/6J mice, including 70 males and 70 females, were used. 1% Pentobarbital Sodium (50 mg/kg) was injected intraperitoneally to anesthetize the mice. The back position was fixed, the neck hair was removed, and the common carotid arteries were cut along the middle of the neck after iodophor disinfection. The common carotid arteries were separated, clamped with a noninvasive artery clamp for 15 minutes, released for 10 minutes, and then clamped for 10 minutes. Penicillin powder was then applied to suture muscles and skin. The sham operation group was not clamped, and other operations were the same as for the model group. […] Mice were divided into 6 groups: sham operation group, model group, positive control group (donepezil) and test compound group (different doses). Test compounds were administered by gavage to each group on the next day of modeling. The compound group was given compounds once a day in the morning and evening, and the volume of each gavage was 10 ml/kg. Half of the animals in the sham operation group and the model group were given the same amount of distilled water, and half of the animals were given the same amount of 1% sodium carboxymethylcellulose solution. […]
For orientation: Immunoblotting shows a protein as a band on a membrane.

For the next experiment, the system named is PSD95. Briefly: PSD95 expression by Western blotting, multiple cerebral infarction dementia rats. In kind it is in vivo, SD rats. The settings on record: compared with the model group, p<0.05. Here is the method:
135 SPF grade SD rats (75 females, 60 males, weighing 200-220 g) were used. Anesthesia was performed by intraperitoneal injection of 3.5% chloral hydrate (350 mg/kg). After dorsal fixation, neck hair removal and iodophor disinfection, animals were cut along the middle of the neck to separate the right common carotid artery, external carotid artery and internal carotid artery. […]
The main pathological indexes included investigation of the improvement of learning and memory impairment in the dementia model animal by test compound using behavioral experimental methods such as Y maze, new object discrimination, Morris water maze and passive avoidance test (dark avoidance); investigation of the protective effect of test compound on mitochondria by detecting the content of ATP in hippocampus and cortex of rats; and investigation of levels of oxidative stress in the rat brain by measuring activity of superoxide dismutase (SOD, which is an oxygen free-radical scavenger), glutathione peroxidase (GSH-Px, which scavenges lipid peroxides induced by reactive oxygen species and —OH), nitric oxide synthase (NOS), malondialdehyde (MDA), and nitric oxide (NO). […] Expression of synaptic associated proteins SYP and PSD95 was detected by Western blotting. […] Experimental results were statistically analyzed using IBM SPSS 21.0 software. […]

Another experiment concerns nitric oxide (NO). Description: NO concentration in cerebral cortex, multiple cerebral infarction dementia rats. In kind it is in vivo, SD rats. The settings on record: compared with the model group, p<0.05. Here is the method:
Compound 4, 120 mg/kg, bid; D. Compound 4, 240 mg/kg, bid; E. Compound 4, 480 mg/kg, bid; F. Donepezil, 0.9 mg/kg. Compared with sham operation group: ### P<0.001; Compared with the model group: ** P<0.01, *** P<0.001.
135 SPF grade SD rats (75 females, 60 males, weighing 200-220 g) were used. Anesthesia was performed by intraperitoneal injection of 3.5% chloral hydrate (350 mg/kg). After dorsal fixation, neck hair removal and iodophor disinfection, animals were cut along the middle of the neck to separate the right common carotid artery, external carotid artery and internal carotid artery. The common carotid artery was temporarily clamped by the artery clamp, the left external carotid artery was retrogradely punctured to the beginning of the left internal carotid artery with a pediatric scalp needle, and then 0.4 ml of embolic normal saline suspension was slowly injected with a syringe (the preparation of embolic normal saline suspension was as follows: blood was collected from the abdominal aorta of the same rat, dried naturally in a 37° C. incubator, and prepared for 80-200 minutes to form a blood clot; during application, 0.3 ml normal saline was added to every 10 mg blood clot), and the common carotid artery clamp was opened at the same time, then the external carotid artery was ligated and the skin was sutured. […]

Take `[2H]C([2H])(CCS(=O)(=O)O)NC(=O)[C@@H](N)C(C)C` [compound 4, 3-((L-valyl)amino)-3,3-dideuterium-1-propanesulfonic Acid]: the “SYP expression, p compared with model group” value in the experiment on SYP (Test group vs model group, n = 15-17, dose not stated) is “p < 0.05”. In addition, the “expression of SYP” value in the experiment on SYP (compared with the model group) is “increased”. In addition, in the experiment with PSD95, the PSD95 expression result is “significantly increased”. Also, the NO content result in the experiment with nitric oxide (NO) was “significantly reduced”.

For the origin of these results see patent US12403129B2, “Isotope-enriched 3-amino-1-propanesulfonic acid derivatives for the treatment of cerebrovascular disease” (RISEN (SUZHOU) PHARMA TECH CO., LTD., priority 2021, dated 2025).
